In EP2450458B1, “Novel microorganisms producing a thermostable lipase and their use” (Universiti Putra Malaysia (UPM), priority 2010, dated 2012):
Several values for one entry are separate records, joined by “and”; a condition that tells them apart may be missing. Equal entries are not always repeated.

Assays:
[1] = test system: purified recombinant ARM thermostable lipase; assay: Lipase organic solvent-stability; type: biochemical, Geobacillus sp. strain ARM; details: solvent 30% v/v, 30 min at 30°C, 150 rpm; assay at 65°C
Description: Aliquots of the enzyme were incubated with the solvents (30%, v/v) for 30 min at 30°C with shaking at 150 rpm. […] The stability was expressed as the remaining lipolytic activity relative to that of the control (without solvent). The relative activity was measured at 65°C as described before.

[2] = values in parenthesis used to select the solvents; cited from earlier work
[3] = test system: purified recombinant ARM thermostable lipase; assay: Effect of metal ions on lipase activity; type: biochemical, Geobacillus sp. strain ARM; details: pre-incubation 30 min at 30°C, assay at 65°C
Description: To determine the effects of metal ions on the lipase activity, the purified enzyme was pre-incubated for 30 min at 30°C with various metal ions. Two concentrations (1 and 5 mM) of each of the following ions were used: CO^2+, CU^2+, Mg^2+, Ni^2+, Mn^2+, Zn^2+ Fe^2+, Ca^2+, Sr^2+, K^+, Na^+, Rb^+ and Ag^+. All salts were dissolved in MOPS buffer (50 mM, pH 8.0) (Aslamkhan et al., 2002). The control contained no ion. The relative activity was measured at 65°C using olive oil (emulsified, 1:1 v/v, in 50 mM Tris-HCl buffer, pH 8.0) as substrate. Metal cations play different and important roles in influencing the structure and function of lipases (Gupta et al.., 2004a; Kim et al., 2005). The effect of different metal ions on the purified ARM lipase activity was studied (Figure 29). […] The Ca^2+-binding motif was not found in ARM lipase sequence.

[4] = test system: purified recombinant ARM thermostable lipase; assay: Effect of inhibitors on lipase activity; type: biochemical, Geobacillus sp. strain ARM; details: pre-incubation 30 min at 30°C, assay at 65°C
Description: The control contained no inhibitor. The relative activity was measured at 65°C using olive oil (emulsified, 1:1 v/v, in 50 mM Tris-HCl buffer, pH 8.0) as substrate.

[5] = test system: purified recombinant ARM thermostable lipase; assay: Effect of surfactants on lipase activity; type: biochemical, Geobacillus sp. strain ARM; details: pre-incubation 30 min at 30°C, assay at 65°C
Description: The effect of surfactants on the lipase activity was investigated by pre-incubating the purified enzyme for 30 min at 30°C in Tris-HCl buffer (50 mM, pH 8.0) containing 0.1 and 1% (v/v) of following surfactants (nonionic surfactants): Tween 20, Tween 40, Tween 80, Tween 85, Triton X-100, Triton B1958, Span 20. In the case of SDS (ionic surfactant) concentrations were 1 and 5 mM. The control contained no surfactant. The relative activity was measured at 65°C using olive oil (emulsified, 1:1 v/v, in 50 mM Tris-HCl buffer, pH 8.0) as substrate. The effects of various surfactants on the purified ARM lipase are depicted in Figure 30.

[6] = test system: purified recombinant ARM thermostable lipase; assay: Effect of ionic liquids on lipase hydrolytic activity; type: biochemical, Geobacillus sp. strain ARM; details: 90% (v/v) ionic liquid, 0 min, without incubation; assay at 65°C
Description: (§1) Aliquots of the enzyme were suspended in 90% (v/v) of four different ionic liquids (ILs) properly. Then, the mixture of lipase and ILs was incubated for 0-90 min at 60°C with shaking at 150 rpm. The selected ILs were [Emim][BF4], [Emim][TfO], [Bmim][BF4] and […]. The thermostability was expressed as the remaining lipolytic activity relative to that of the control (without ILs) after incubation at high temperature. The residual activity was measured at 65°C as described before.

[7] = test system: purified recombinant ARM thermostable lipase; assay: Effect of ionic liquids on lipase thermostability at 60°C; type: biochemical, Geobacillus sp. strain ARM; details: 90% (v/v) ionic liquid, 0-90 min at 60°C, 150 rpm; assay at 65°C
Description: as §1

Row | Compound | remaining lipolytic activity relative to the control (without solvent) [1] | log P [2] | further results
1 | 1-butanol | – | – | effect on lipase activity/stability [1]: dramatically inhibited
2 | 1-propanol | – | – | effect on lipase activity/stability [1]: dramatically inhibited
3 | CCCCCCCCCCO [1-decanol] | 86% | – | –
4 | CCCCCCCCCCCCO [1-dodecanol] | more than 100% | 5 | –
5 | CCCCCCCCCCCCCCCC [1-hexadecane] | 78% | – | –
6 | CCCCCCCCO [1-octanol] | more than 100% | 2.9 | –
7 | CCCCCCCCCCCO [1-undecanol] | 74% | 4.6 | –
8 | CC(O)C(C)O (stereo not shown) [2,3-butanediol] | – | -0.92 | –
9 | CC(C)O [2-propanol] | – | – | effect on lipase activity/stability [1]: dramatically inhibited
10 | [Ca+2] [Ca^2+] | – | – | effect on lipase activity ([3]; 1 and 5 mM ion): stimulated the lipase activity
11 | C[S+](C)[O-] [DMSO] | 62.5% and 62.4% | – | –
12 | O=C(O)CN(CCN(CC(=O)O)CC(=O)O)CC(=O)O [EDTA, ethylene diamine tetra-acetic acid] | – | – | activation of the lipase ([4]; 1 mM): around 20%; activation of the lipase ([4]; 5 mM): more than 60%
13 | CCCCCCCCCCCCOS(=O)(=O)[O-].[Na+] [SDS] | – | – | effect on lipase activity ([5]; 1 and 5 mM (ionic surfactant)): strongly inhibited
14 | [Sr+2] [Sr^2+] | – | – | effect on lipase activity ([3]; 1 mM ion): stimulated the lipase activity
15 | CCCCn1cc[n+](C)c1.F[B-](F)(F)F [[Bmim][BF4]] | – | – | effect on lipase activity [6]: decreased lipase activity
16 | CCCCn1cc[n+](C)c1.F[P-](F)(F)(F)(F)F [[Bmim][PH6]] | – | – | lipase activity relative to the control (without ILs) [6]: up to 120%
17 | CCn1cc[n+](C)c1.F[B-](F)(F)F [[Emim][BF4]] | – | – | effect on lipase activity [6]: no significant effect; effect on lipase thermostability [7]: significant effects on lipase thermostability enhancement
18 | CCn1cc[n+](C)c1.O=S(=O)([O-])C(F)(F)F [[Emim][TfO]] | – | – | lipase activity relative to the control (without ILs) [6]: up to 120%; effect on lipase thermostability [7]: significant effects on lipase thermostability enhancement

Row | Compound | remaining lipolytic activity relative to the control (without solvent) [1] | log P [2] | further results
19 | CC(C)=O [acetone] | – | -0.208 | effect on lipase activity/stability [1]: dramatically inhibited
20 | CC#N [acetonitrile] | – | -0.394 | effect on lipase activity/stability [1]: dramatically inhibited
21 | c1ccccc1 [benzene] | more than 100% | – | –
22 | OCc1ccccc1 [bnzyl alcohol] | – | – | effect on lipase activity/stability [1]: dramatically inhibited
23 | CCc1ccccc1 [ethylbenzene] | 77% | 3.3 | –
24 | CCCCCCCCCCCCCCCCC [heptadecane] | more than 100% | 8.69 | –
25 | CCCCCCC [heptan] | more than 100% | 4.4 | –
26 | CC(C)CCO [iso-amyl alcohol] | – | 1.3 | effect on lipase activity/stability [1]: dramatically inhibited
27 | CC(C)CO [iso-butanol] | – | 0.79 | effect on lipase activity/stability [1]: dramatically inhibited
28 | CC(C)CC(C)(C)C [iso-octane] | more than 100% | 4.5 | –
29 | CCCCCCCCCCCCCCC [n-pentadecane] | more than 100% | 7.71 | –
30 | CCCCCCCCCCCCCC [n-tetradecane] | more than 100% | 7 | –
31 | Cc1ccccc1C [o-xylene] | more than 100% | – | –
32 | Cc1ccccc1 [toluene] | more than 100% | – | –
33 | Span 20 | – | – | effect on lipase activity ([5]; 0.1 and 1% (v/v) surfactant): not affected
34 | Triton X-100 | – | – | increase in lipase activity ([5]; 1% surfactant): 20%
35 | hexanes | more than 100% | 3.6 | –
